Data as given in patent publication US4067990A, “Process for the preparation of insecticidal compositions based on carbamic esters” (Airwick Industries, Inc., priority 1971, dated 1978).
Read-outs that look alike come from different tables or passages of the source.

Tests used:
[1] = at 25° C
[2] = Dissolution capacity of diluents/solvents for Dioxacarb and Arprocarb; assay type: physicochemical
[3] = at 20° C, solute Arprocarb, footnotes

CCCCCC [Hexane]
Vapour pressure [1]: 151 Torr
Dissolution capacity for ARPROCARB ([2]; at 20° C, solute Arprocarb): 0.3 weight %
Dissolving capacity for Arprocarb [2, 3]: 0.3%
Dissolution capacity for DIOXACARB ([2]; at 20° C, solute Dioxacarb): 0.2 weight %
Dissolving capacity for Dioxacarb ([2]; at 20° C, solute Dioxacarb): approximately 0.2%

CCC(N)(CO)CO [2-Amino-2-ethyl-1,3-propanediol]
Vapour pressure [1]: 0.01 Torr
Dissolution capacity for DIOXACARB ([2]; at 20° C, solute Dioxacarb): 2.4 weight %

COCCO [2-Methoxyethanol]
Vapour pressure [1]: 8.6 Torr
Dissolution capacity for DIOXACARB [2]: 15 weight %
Dissolving capacity for Dioxacarb [2]: about 15%

CCCOC(C)=O [Propylacetate]
Vapour pressure [1]: 33 Torr
Dissolution capacity for DIOXACARB ([2]; at 20° C, solute Dioxacarb): 6 weight %

CCCCOC(C)=O [Butylacetate]
Vapour pressure [1]: 11 Torr
Dissolution capacity for DIOXACARB [2]: 5 weight %

CCO [Ethanol]
Dissolution capacity for ARPROCARB [2]: 0.3 weight %
Dissolution capacity for DIOXACARB [2]: 0.2 weight %
Dissolving capacity for Arprocarb [2]: 40%
Dissolving capacity for Dioxacarb [2]: 8%

C1COCCO1 [Dioxan]
Vapour pressure [1]: 35 Torr
Dissolution capacity for DIOXACARB ([2]; at 20° C, solute Dioxacarb): 23 weight %
Dissolving capacity for Dioxacarb ([2]; at 20° C, solute Dioxacarb): 23%

C1CCOC1 [Tetrahydrofuran]
Vapour pressure [1]: 176 Torr
Dissolution capacity for ARPROCARB ([2]; at 20° C, solute Arprocarb): 50 weight %
Dissolving capacity for Arprocarb [2, 3]: approximately 50%
Dissolution capacity for DIOXACARB ([2]; at 20° C, solute Dioxacarb): 33.5 weight %
Dissolving capacity for Dioxacarb ([2]; at 20° C, solute Dioxacarb): 33.5%

CCCCCO [Amylalcohol]
Vapour pressure [1]: 2.5 Torr
Dissolution capacity for DIOXACARB ([2]; at 20° C, solute Dioxacarb): 2.6 weight %
Dissolving capacity for Dioxacarb ([2]; at 20° C, solute Dioxacarb): 2.6%

CCC(=O)OC [Methylpropionate]
Vapour pressure [1]: 83 Torr
Dissolution capacity for DIOXACARB ([2]; at 20° C, solute Dioxacarb): 12 weight %

C[N+](=O)[O-] [Nitromethane]
Vapour pressure [1]: 34 Torr
Dissolution capacity for DIOXACARB ([2]; at 20° C, solute Dioxacarb): 27.5 weight %
Dissolving capacity for Dioxacarb ([2]; at 20° C, solute Dioxacarb): 27.5%

CCCC(=O)OC [Methylbutyrate]
Vapour pressure [1]: 34 Torr
Dissolution capacity for DIOXACARB ([2]; at 20° C, solute Dioxacarb): 8 weight %

ter. Dodecanethiol
Vapour pressure [1]: 0.008 Torr
Dissolution capacity for DIOXACARB ([2]; at 20° C, solute Dioxacarb): 0.2 weight %

CC#N [Acetonitrile]
Vapour pressure [1]: 86 Torr
Dissolution capacity for DIOXACARB ([2]; at 20° C, solute Dioxacarb): 35.5 weight %
Dissolving capacity for Dioxacarb ([2]; at 20° C, solute Dioxacarb): 35.5%

CCCCCCCCCCCCCC(=O)OC(C)C [Isopropylmyristate]
Vapour pressure ([1]; listed as Isopropyl myristate): ca. 0.001 Torr
Vapour pressure ([1]; listed as isopropylmyristate): < 0.005 Torr
Dissolution capacity for ARPROCARB ([2]; at 20° C, solute Arprocarb): 1.3 weight %
Dissolving capacity for Arprocarb [2, 3]: 1.3%
Dissolution capacity for DIOXACARB ([2]; at 20° C, solute Dioxacarb): 0.3 weight %
Dissolving capacity for Dioxacarb ([2]; at 20° C, solute Dioxacarb): 0.3%

CCCCC(CC)COC(=O)CCCCC(=O)OCC(CC)CCCC (stereo not shown) [Di(2-ethylhexyl)adipate)]
Vapour pressure [1]: 0.007 Torr
Vapour pressure ([1]; listed as Di(2-ethyl-hexyl) adipate): ~0.007 Torr
Vapour pressure ([1]; listed as di(ethyl-2-hexyl) adipate): < 0.005 Torr
Dissolution capacity for ARPROCARB ([2]; at 20° C, solute Arprocarb): 2.8 weight %
Dissolving capacity for Arprocarb [2, 3]: 2.8%
Dissolution capacity for DIOXACARB ([2]; at 20° C, solute Dioxacarb): 2.0 weight %

CO [Methanol]
Vapour pressure [1]: 127 Torr
Dissolution capacity for DIOXACARB ([2]; at 20° C, solute Dioxacarb): 20.5 weight %
Dissolving capacity for Dioxacarb ([2]; at 20° C, solute Dioxacarb): 20.5%

OCC(O)CO [Glycerol]
Vapour pressure [1]: < 0.0001 Torr
Dissolution capacity for DIOXACARB ([2]; at 20° C, solute Dioxacarb): 0.6 weight %

Tetrachlorodiphenyle
Vapour pressure [1]: < 0.001 Torr
Vapour pressure ([1]; listed as Tetrachlorodiphenyl): below 0.001 Torr
Vapour pressure ([1]; listed as tetrachlorodiphenyl): < 0.005 Torr
Dissolution capacity for DIOXACARB ([2]; at 20° C, solute Dioxacarb): 1.3 weight %
Dissolving capacity for Dioxacarb ([2]; at 20° C, solute Dioxacarb): 1.3%

CCCCCCCCCCCCC1CC(=O)OC1=O (stereo not shown) [2-Dodecylsuccinic-acid anhydride]
Vapour pressure [1]: 0.007 Torr
Dissolution capacity for DIOXACARB ([2]; at 20° C, solute Dioxacarb): 2.9 weight %

CCCCCCCC(=O)O [Octanoic acid]
Vapour pressure [1]: 0.002 Torr
Dissolution capacity for DIOXACARB ([2]; at 20° C, solute Dioxacarb): 1.5 weight %

CCCC(=O)OCC [Ethylbutyrate]
Vapour pressure [1]: 17 Torr
Dissolution capacity for DIOXACARB ([2]; at 20° C, solute Dioxacarb): 7 weight %

CC(C)=O [Acetone]
Vapour pressure [1]: 225 Torr
Dissolution capacity for DIOXACARB [2]: 28 weight %
Dissolving capacity for Dioxacarb [2]: 28%

CCOCCOCCOC(C)Oc1ccc2c(c1)OCO2 (stereo not shown) [T.U.O.B., 5-(3,6,9-trioxa-undecyl-2-oxy)-1,3-benzodioxole]
Vapour pressure [1]: < 0.005 Torr
Dissolution capacity for ARPROCARB ([2]; at 20° C, solute Arprocarb): 5.0 weight %
Dissolving capacity for Arprocarb [2, 3]: 5%
Dissolution capacity for DIOXACARB ([2]; at 20° C, solute Dioxacarb): 2.9 weight %
Dissolving capacity for Dioxacarb ([2]; at 20° C, solute Dioxacarb): 2.9%

CC(Cl)(Cl)Cl [1.1.1-Trichloro-ethane]
Vapour pressure [1]: 121 Torr
Dissolution capacity for DIOXACARB ([2]; at 20° C, solute Dioxacarb): 2.3 weight %
Dissolving capacity for Dioxacarb ([2]; at 20° C, solute Dioxacarb): 2.3%

CCCCCCCC/C=C/CCCCCCCC(=O)CCCCCCC/C=C/CCCCCCCC [Oleone]
Vapour pressure [1]: < 10^-6 Torr
Dissolution capacity for DIOXACARB ([2]; at 20° C, solute Dioxacarb): 0.2 weight %

CCCCCCCCCCCCO [Composition 1-Dodecanol, 1-Dodecanol]
Vapour pressure [1]: 0.001 Torr
Dissolution capacity for DIOXACARB ([2]; at 20° C, solute Dioxacarb): 0.8 weight %

CCCCCCCCCCCCCCCCCl [1-Chlorohexadecane]
Vapour pressure [1]: < 0.0001 Torr
Vapour pressure ([1]; listed as 1-chlorohexadecane): < 0.005 Torr
Vapour pressure ([1]; listed as Chlorohexadecane): below 0.0001 Torr
Dissolving capacity for Arprocarb of the 1:1 mixture with 5-(3,6,9-trioxa-un-decyl-2-oxy)-1,3-benzodioxole ([2]; at 20° C, 1:1 mixture with T.U.O.B.): 2%
Dissolution capacity for ARPROCARB ([2]; at 20° C, solute Arprocarb): 0.4 weight %
Dissolving capacity for Arprocarb [2, 3]: 0.4%
Dissolution capacity for DIOXACARB ([2]; at 20° C, solute Dioxacarb): 0.7 weight %
Dissolving capacity for Dioxacarb ([2]; at 20° C, solute Dioxacarb): 0.7%

CCCCCCC [Heptane]
Vapour pressure [1]: 38.5 Torr
Dissolution capacity for ARPROCARB ([2]; at 20° C, solute Arprocarb): 0.3 weight %
Dissolving capacity for Arprocarb [2, 3]: 0.3%
Dissolving capacity for Dioxacarb ([2]; at 20° C, solute Dioxacarb): about 0.2%

CCCCOC(=O)c1ccccc1C(=O)OCCCC [Dibutylphthalate]
Vapour pressure [1]: < 0.0001 Torr
Vapour pressure ([1]; listed as Dibutyl phthalate): ca. 0.0001 Torr
Vapour pressure ([1]; listed as dibutylphthalate): < 0.005 Torr
Dissolution capacity for DIOXACARB ([2]; at 20° C, solute Dioxacarb): 2.7 weight %
Dissolving capacity for Dioxacarb ([2]; at 20° C, solute Dioxacarb): 2.7%

CCCCCl [1-Chlorobutane]
Vapour pressure [1]: 102 Torr
Dissolution capacity for DIOXACARB ([2]; at 20° C, solute Dioxacarb): 2 weight %
Dissolving capacity for Dioxacarb ([2]; at 20° C, solute Dioxacarb): 2%

c1ccccc1 [Benzene]
Dissolution capacity for DIOXACARB [2]: 3 weight %
Dissolving capacity for Dioxacarb [2]: 3%

CCCCOCCOCCOCCCC [5,8,11-Trioxapentadecane, 5,8,11-Trioxapenta-decane]
Vapour pressure [1]: 0.002 Torr
Dissolution capacity for DIOXACARB ([2]; at 20° C, solute Dioxacarb): 3.2 weight %

CCCCCCCCCCCCCCCC [Hexadecane]
Vapour pressure [1]: 0.003 Torr
Vapour pressure ([1]; listed as hexadecane): < 0.005 Torr
Dissolution capacity for DIOXACARB ([2]; at 20° C, solute Dioxacarb): 0 weight %

CCC(C)OC(C)=O (stereo not shown) [sec. Butylacetate]
Vapour pressure [1]: 26 Torr
Dissolution capacity for DIOXACARB ([2]; at 20° C, solute Dioxacarb): 6 weight %

CCCCCCCCCCCCCCBr [1-Bromotetradecane]
Vapour pressure [1]: < 0.001 Torr
Vapour pressure ([1]; listed as 1-bromotetradecane): < 0.005 Torr
Dissolution capacity for DIOXACARB ([2]; at 20° C, solute Dioxacarb): 0.1 weight %

CCCCCCCCOC(=O)c1ccccc1C(=O)OCCCCCCCC [Dioctylphthalate]
Vapour pressure [1]: < 0.0001 Torr
Vapour pressure ([1]; listed as Dioctyl phthalate): below 0.0001 Torr
Vapour pressure ([1]; listed as dioctylphthalate): < 0.005 Torr
Dissolution capacity for ARPROCARB ([2]; at 20° C, solute Arprocarb): 2.6 weight %
Dissolving capacity for Arprocarb [2, 3]: 2.6%
Dissolution capacity for DIOXACARB ([2]; at 20° C, solute Dioxacarb): 0.1 weight %
Dissolving capacity for Dioxacarb ([2]; at 20° C, solute Dioxacarb): 0.1%

COCCOC(C)=O [2-Methoxyethyl acetate]
Vapour pressure [1]: 5 Torr
Dissolution capacity for ARPROCARB ([2]; at 20° C, solute Arprocarb): 33 weight %
Dissolution capacity for DIOXACARB ([2]; at 20° C, solute Dioxacarb): 20 weight %

ClC(Cl)Cl [Trichloromethane]
Vapour pressure [1]: 194 Torr
Vapour pressure ([1]; listed as Chloroform): 194 Torr
Dissolution capacity for DIOXACARB [2]: 34 weight %
Dissolving capacity for Dioxacarb [2]: 34%

CC(C)O [Isopropanol]
Vapour pressure [1]: 44 Torr
Dissolution capacity for ARPROCARB ([2]; at 20° C, solute Arprocarb): 30 weight %
Dissolving capacity for Arprocarb [2, 3]: approximately 30%
Dissolution capacity for DIOXACARB ([2]; at 20° C, solute Dioxacarb): 4.5 weight %
Dissolving capacity for Dioxacarb ([2]; at 20° C, solute Dioxacarb): 4.5%

ClCCl [Dichloromethane]
Vapour pressure [1]: 420 Torr
Dissolution capacity for ARPROCARB [2]: 48 weight %
Dissolution capacity for DIOXACARB [2]: 45 weight %
Dissolving capacity for Arprocarb [2]: approximately 48%
Dissolving capacity for Dioxacarb [2]: 45%

COC(C)=O [Methylacetate]
Vapour pressure [1]: 216 Torr
Dissolution capacity for ARPROCARB ([2]; at 20° C, solute Arprocarb): 41 weight %
Dissolving capacity for Arprocarb [2, 3]: 41%
Dissolution capacity for DIOXACARB ([2]; at 20° C, solute Dioxacarb): 19.6 weight %
Dissolving capacity for Dioxacarb ([2]; at 20° C, solute Dioxacarb): 19.6%

CC(=O)OC(C)C [Isopropylacetate]
Vapour pressure [1]: 55 Torr
Dissolution capacity for DIOXACARB ([2]; at 20° C, solute Dioxacarb): 6 weight %

CC(=O)OCC(C)C [Isobutylacetate]
Vapour pressure [1]: 17 Torr
Dissolution capacity for DIOXACARB ([2]; at 20° C, solute Dioxacarb): 6 weight %

CCCCC [Pentane]
Vapour pressure [1]: 513 Torr
Dissolution capacity for ARPROCARB [2]: 0.3 weight %
Dissolution capacity for DIOXACARB [2]: 0.2 weight %
Dissolving capacity for Arprocarb [2]: 0.3%
Dissolving capacity for Dioxacarb [2]: approximately 0.2%

CCC(C)=O [Methylethylketone]
Vapour pressure [1]: 20 Torr
Dissolution capacity for DIOXACARB ([2]; at 20° C, solute Dioxacarb): 5 weight %

CCCCCCCC/C=C\CCCCCCCC(=O)O [Oleic acid]
Vapour pressure [1]: 0.0002 Torr
Dissolution capacity for DIOXACARB ([2]; at 20° C, solute Dioxacarb): 1.2 weight %

CCOC(C)=O [Ethylacetate]
Vapour pressure [1]: 97 Torr
Dissolution capacity for DIOXACARB ([2]; at 20° C, solute Dioxacarb): 10.5 weight %
Dissolving capacity for Dioxacarb ([2]; at 20° C, solute Dioxacarb): 10.5%

ClC=C(Cl)Cl [Trichloroethylene]
Vapour pressure [1]: 74 Torr
Dissolution capacity for DIOXACARB ([2]; at 20° C, solute Dioxacarb): 2 weight %
Dissolving capacity for Dioxacarb ([2]; at 20° C, solute Dioxacarb): approximately 2%

CCOC(=O)CC [Ethylpropionate]
Vapour pressure [1]: 37 Torr
Dissolution capacity for DIOXACARB ([2]; at 20° C, solute Dioxacarb): 9 weight %
